Key:
[1] = target: Human α2δ-1 subunit of Cav2.2 calcium channel (Homo sapiens, UniProt P54289); experiment: Human α2δ-1 subunit of Cav2.2 calcium channel assay, [3H]-Gabapentin binding; conditions: human α2δ-1 enriched membranes, 15 nM [3H]-Gabapentin
Description: Human α2δ-1 Subunit of Cav2.2 Calcium Channel Assay
Human α2δ-1 enriched membranes (2.5 μg) were incubated with 15 nM of radiolabeled [3H]-Gabapentin in assay buffer containing Hepes-KOH 10 mM, pH 7.4. NSB (non specific binding) was measured by adding 10 μM pregabalin. After 60 min incubation at 27° C., binding reaction was terminated by filtering through Multiscreen GF/C (Millipore) presoaked in 0.5% polyethyleneimine in Vacuum Manifold Station, followed by 3 washes with ice-cold filtration buffer containing 50 mM Tris-HCl, pH 7.4. Filter plates were dried at 60° C. for 1 hour and 30 μL of scintillation cocktail were added to each well before radioactivity reading. Readings were performed in a Trilux 1450 Microbeta radioactive counter (Perkin Elmer).

[2] = target: Human norepinephrine transporter (NET) (Homo sapiens, UniProt P23975); experiment: Binding assay to human norepinephrine transporter (NET), [3H]-Nisoxetin; conditions: human NET enriched membranes, 5 nM [3H]-Nisoxetin
Chain of Human norepinephrine transporter (NET) (P23975 whole entry): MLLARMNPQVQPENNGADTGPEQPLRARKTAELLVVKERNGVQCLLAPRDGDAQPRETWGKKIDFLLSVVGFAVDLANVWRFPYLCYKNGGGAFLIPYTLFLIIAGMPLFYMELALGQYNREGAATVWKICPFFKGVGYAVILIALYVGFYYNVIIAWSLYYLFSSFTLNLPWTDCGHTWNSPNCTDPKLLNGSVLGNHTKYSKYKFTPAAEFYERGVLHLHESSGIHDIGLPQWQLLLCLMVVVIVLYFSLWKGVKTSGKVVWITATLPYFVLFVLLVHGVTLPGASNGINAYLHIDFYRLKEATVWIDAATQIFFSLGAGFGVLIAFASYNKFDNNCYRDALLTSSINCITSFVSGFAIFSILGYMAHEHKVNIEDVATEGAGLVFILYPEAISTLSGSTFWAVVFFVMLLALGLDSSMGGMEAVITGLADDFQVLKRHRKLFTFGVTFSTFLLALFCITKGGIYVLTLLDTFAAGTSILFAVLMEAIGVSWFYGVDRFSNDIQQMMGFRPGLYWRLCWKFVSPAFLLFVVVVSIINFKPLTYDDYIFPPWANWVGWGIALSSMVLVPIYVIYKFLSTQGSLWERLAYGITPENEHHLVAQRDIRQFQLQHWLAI
Description: Binding Assay to Human Norepinephrine Transporter (NET).
Human norepinephrine transporter (NET) enriched membranes (5 μg) were incubated with 5 nM of radiolabeled [3H]-Nisoxetin in assay buffer containing 50 mM Tris-HCl, 120 mM NaCl, 5 mM KCl, pH 7.4.
NSB (non specific binding) was measured by adding 1 μM. After 60 min incubation at 4° C., binding reaction was terminated by filtering through Multiscreen GF/C (Millipore) presoaked in 0.5% polyethyleneimine in Vacuum Manifold Station, followed by 3 washes with ice-cold filtration buffer containing 50 mM Tris-HCl, 0.9% NaCl, pH 7.4.
Filter plates were dried at 60° C. for 1 hour and 30 μL of scintillation cocktail were added to each well before radioactivity reading.
Readings were performed in a Trilux 1450 Microbeta radioactive counter (Perkin Elmer).

Chain of Human α2δ-1 subunit of Cav2.2 calcium channel (P54289 25-1103): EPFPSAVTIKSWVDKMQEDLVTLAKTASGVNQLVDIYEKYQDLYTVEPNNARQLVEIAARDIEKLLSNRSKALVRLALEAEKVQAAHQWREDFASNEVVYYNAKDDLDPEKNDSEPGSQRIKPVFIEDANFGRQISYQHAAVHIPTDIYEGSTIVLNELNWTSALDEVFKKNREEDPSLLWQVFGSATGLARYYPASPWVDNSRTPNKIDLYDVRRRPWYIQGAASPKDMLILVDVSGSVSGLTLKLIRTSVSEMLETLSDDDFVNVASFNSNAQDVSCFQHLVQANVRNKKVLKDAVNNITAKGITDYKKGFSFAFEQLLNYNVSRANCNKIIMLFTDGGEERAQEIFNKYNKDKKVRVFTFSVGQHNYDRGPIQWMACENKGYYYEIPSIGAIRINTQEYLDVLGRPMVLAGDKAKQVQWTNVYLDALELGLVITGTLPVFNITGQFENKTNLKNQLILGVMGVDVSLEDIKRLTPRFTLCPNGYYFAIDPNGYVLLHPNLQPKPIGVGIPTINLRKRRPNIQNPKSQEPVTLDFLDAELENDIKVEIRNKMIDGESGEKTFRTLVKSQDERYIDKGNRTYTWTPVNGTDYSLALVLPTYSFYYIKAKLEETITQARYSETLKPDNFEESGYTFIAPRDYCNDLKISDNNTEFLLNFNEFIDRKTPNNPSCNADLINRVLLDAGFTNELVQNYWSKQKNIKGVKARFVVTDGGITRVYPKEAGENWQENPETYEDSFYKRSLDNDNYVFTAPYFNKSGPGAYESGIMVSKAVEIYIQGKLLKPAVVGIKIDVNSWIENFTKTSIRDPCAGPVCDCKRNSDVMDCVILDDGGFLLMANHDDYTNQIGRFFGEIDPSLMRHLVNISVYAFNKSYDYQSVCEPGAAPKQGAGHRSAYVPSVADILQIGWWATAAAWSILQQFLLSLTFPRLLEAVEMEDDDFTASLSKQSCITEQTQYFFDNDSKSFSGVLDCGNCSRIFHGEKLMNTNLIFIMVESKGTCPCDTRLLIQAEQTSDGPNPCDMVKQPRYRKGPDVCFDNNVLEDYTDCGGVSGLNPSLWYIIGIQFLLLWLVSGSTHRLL

SMILES | Ki [1] [nM] | Ki [2] [nM]
CNCC[C@H](Oc1cccc(-c2ccnc(N3CCN(C)CC3)n2)c1)c1ccccc1 [Example 31, (S)—N-methyl-3-(3-(2-(4-methylpiperazin-1-yl)pyrimidin-4-yl)phenoxy)-3-phenylpropan-1-amine] | 500 to 5000 | ≥ 1000
CCNc1nccc(-c2cccc(O[C@@H](CCNC)c3ccccc3)c2)n1 [Example 29, (S)—N-ethyl-4-(3-(3-(methylamino)-1-phenylpropoxy)phenyl)pyrimidin-2-amine] | 500 to 5000 | 100 to 500
CNCCC(Oc1cccc(-c2ccnc(C)n2)c1)c1ccccc1 (centres unmarked) [Example 2, N-methyl-3-(3-(2-methylpyrimidin-4-yl)phenoxy)-3-phenylpropan-1-amine] | 500 to 5000 | 100 to 500
CNCC[C@H](Oc1cccc(-c2ccnc(N)n2)c1)c1ccccc1 [Example 10, (S)-4-(3-(3-(methylamino)-1-phenylpropoxy)phenyl)pyrimidin-2-amine] | 500 to 5000 | 100 to 500
CNCC[C@H](Oc1cccc(-c2ccnc(SC)n2)c1)c1ccccc1 [Example 5, (S)—N-methyl-3-(3-(2-(methylthio)pyrimidin-4-yl)phenoxy)-3-phenylpropan-1-amine] | 500 to 5000 | < 100
CNCC[C@H](Oc1cccc(-c2ccnc(N(C)C)n2)c1)c1ccccc1 [Example 35, (S)—N,N-dimethyl-4-(3-(3-(methylamino)-1-phenylpropoxy)phenyl)pyrimidin-2-amine] | ≥ 5000 | < 100
CNCCC(Oc1cccc(-c2ccnc(C)c2)c1)c1cccs1 (centres unmarked) [Example 19, N-methyl-3-(3-(2-methylpyridin-4-yl)phenoxy)-3-(thiophen-2-yl)propan-1-amine] | < 500 | 100 to 500
CNCC[C@H](Oc1cccc(-c2ccnc(N3CCNCC3)n2)c1)c1ccccc1 [Example 28, (S)—N-Methyl-3-phenyl-3-(3-(2-(piperazin-1-yl)pyrimidin-4-yl)phenoxy)propan-1-amine] | 500 to 5000 | ≥ 1000
CNCC[C@H](Oc1cccc(-c2ccnc(N[C@@H]3CCNC3)n2)c1)c1ccccc1 [Example 36, 4-(3-((S)-3-(methylamino)-1-phenylpropoxy)phenyl)-N—((R)-pyrrolidin-3-yl)pyrimidin-2-amine] | 500 to 5000 | 500 to 1000
CNCC[C@@H](Oc1cccc(-c2ccnc(N[C@@H]3CCNC3)n2)c1)c1ccccc1 [Example 33, 4-(3-((R)-3-(methylamino)-1-phenylpropoxy)phenyl)-N—((R)-pyrrolidin-3-yl)pyrimidin-2-amine] | 500 to 5000 | ≥ 1000
CNCCC(Oc1cccc(-c2cnc(OC)nc2)c1)c1cccs1 (centres unmarked) [Example 18, 3-(3-(2-methoxypyrimidin-5-yl)phenoxy)-N-methyl-3-(thiophen-2-yl)propan-1-amine] | 500 to 5000 | ≥ 1000
CNCC[C@@H](Oc1cccc(-c2ccnc(N[C@H]3CCNC3)n2)c1)c1ccccc1 [Example 34, 4-(3-((R)-3-(methylamino)-1-phenylpropoxy)phenyl)-N—((S)-pyrrolidin-3-yl)pyrimidin-2-amine] | 500 to 5000 | 500 to 1000
CNCCC(Oc1cccc(-c2ccncc2C)c1)c1cccs1 (centres unmarked) [Example 24, N-methyl-3-(3-(3-methylpyridin-4-yl)phenoxy)-3-(thiophen-2-yl)propan-1-amine] | 500 to 5000 | 500 to 1000
CNCC[C@H](Oc1cccc(-c2ccnc(NC)n2)c1)c1ccccc1 [Example 30, (S)—N-methyl-4-(3-(3-(methylamino)-1-phenylpropoxy)phenyl)pyrimidin-2-amine] | ≥ 5000 | < 100
CNCCC(Oc1cccc(-c2ccnc(C(F)(F)F)c2)c1)c1cccs1 (centres unmarked) [Example 22, N-methyl-3-(thiophen-2-yl)-3-(3-(2-(trifluoromethyl)pyridin-4-yl)phenoxy)propan-1-amine] | 500 to 5000 | 100 to 500
CNCC[C@H](Oc1cccc(-c2ccnc(C)n2)c1)c1ccccc1 [Example 6, (S)—N-methyl-3-(3-(2-methylpyrimidin-4-yl)phenoxy)-3-phenylpropan-1-amine] | 500 to 5000 | 100 to 500
CNCCC(Oc1cccc(-c2cnc(C)nc2)c1)c1cccs1 (centres unmarked) [Example 23, N-methyl-3-(3-(2-methylpyrimidin-5-yl)phenoxy)-3-(thiophen-2-yl)propan-1-amine] | 500 to 5000 | ≥ 1000
CNCCC(Oc1cccc(-c2ccncn2)c1)c1ccccc1 (centres unmarked) [Example 4, N-methyl-3-phenyl-3-(3-(pyrimidin-4-yl)phenoxy)propan-1-amine] | 500 to 5000 | 500 to 1000
CNCCC(Oc1cccc(-c2ccc(C)nn2)c1)c1ccccc1 (centres unmarked) [Example 3, N-methyl-3-(3-(6-methylpyridazin-3-yl)phenoxy)-3-phenylpropan-1-amine] | ≥ 5000 | 500 to 1000
CNCCC(Oc1cccc(-c2ccnc(OC)n2)c1)c1ccccc1 (centres unmarked) [Example 1, 3-(3-(2-Methoxypyrimidin-4-yl)phenoxy)-N-methyl-3-phenylpropan-1-amine] | 500 to 5000 | < 100
CNCC[C@@H](Oc1cccc(-c2ccnc(SC)n2)c1)c1ccccc1 [Example 8, (R)—N-methyl-3-(3-(2-(methylthio)pyrimidin-4-yl)phenoxy)-3-phenylpropan-1-amine] | 500 to 5000 | < 100
CNCC[C@@H](Oc1cccc(-c2ccnc(C)n2)c1)c1ccccc1 [Example 7, (R)—N-methyl-3-(3-(2-methylpyrimidin-4-yl)phenoxy)-3-phenylpropan-1-amine] | 500 to 5000 | 500 to 1000
CNCCC(Oc1cccc(-c2ccncc2)c1)c1cccs1 (centres unmarked) [Example 27, N-methyl-3-(3-(pyridin-4-yl)phenoxy)-3-(thiophen-2-yl)propan-1-amine] | 500 to 5000 | 100 to 500
CNCCNc1nccc(-c2cccc(O[C@@H](CCNC)c3ccccc3)c2)n1 [Example 32, (S)—N1-methyl-N2-(4-(3-(3-(methylamino)-1-phenylpropoxy)phenyl)pyrimidin-2-yl)ethane-1,2-diamine] | 500 to 5000 | ≥ 1000
CNCCC(Oc1cccc(-c2cc(C)nc(C)c2)c1)c1cccs1 (centres unmarked) [Example 26, 3-(3-(2,6-dimethylpyridin-4-yl)phenoxy)-N-methyl-3-(thiophen-2-yl)propan-1-amine] | 500 to 5000 | 100 to 500
